# From US12583911B2, “Human immunodeficiency virus GP120 binding proteins” (ViiV Healthcare UK (No.5) Limited, priority 2022, dated 2026)
# pEC50, pIC50: −log10 of the molar value.
# What was measured:
# [1] = Melting temperature (Tm) of soluble CD4 domains, Prometheus System; type: physicochemical; details: soluble CD4 domain with C-terminal 6xHis tag
# Description: The best performing variants (SEQ ID NOs: 5-21) were fused with 6×His tag at their C-termini, expressed and purified from mammalian cells using methods as described in Example 1, except that purification was via a Ni-NTA resin (Cytiva, Marlborough MA) instead of Mabselect SuRe column, with standard protocol from the vendor.
# These purified CD4 D1 variants (with C-terminal 6xHis tag) were then evaluated to determine their melting temperature (Tm, using Prometheus System, NanoTemper, München Germany), which indicates thermal stability, as well as their anti-viral activity against HIV-1 pseudotyped virus (see Example 2 above for methods using ACTOne cells).
# [2] = tested on: HIV-2 Env-pseudotypes (HIV-2-AID, HIV-2-ATM88, HIV-2-HCC-01); experiment: PSV assay (ACTOne cells), HIV-2 envelopes; type: cell-based
# Description: (§1) The anti-viral activity of the antigen binding proteins was measured in a pseudotyped virus (PSV) assay.
# (§2) PSV was produced in HEK-293T cells (ATCC, Manassas VA) by co-transfecting expression plasmids encoding the HIV-1 gp160 envelope gene and an HIV-1 backbone plasmid using TRANSIT-2020 transfection reagent (Mirus Bio, Madison WI). A panel of HIV-1 PSVs expressing different gp160 envelope trimers was generated to evaluate the effectiveness of the antigen binding proteins of the invention against a wide spectrum of HIV-1 strains.
# (§3) The genome of PSV used in this assay contains a luciferase gene that is expressed once the virus enters cells. Accordingly, the luminescence signal (after adding a substrate of luciferase) can be used to determine the level of viral infection.
# (§4) The 50% tissue culture infectious dose (TCID) of a single thawed aliquot of each batch of PSV was determined in ACTOne cells. The ACTOne cell-line used in this assay was derived in-house from a genetically engineered 293T cell clone that expresses CD4, CXCR4, and CCR5. Cells were maintained in growth medium composed of Dulbecco's modified Eagle's medium (DMEM, Life Technologies) at 37° C. in a humidified 5% CO2-95% air environment. Cell monolayers were split by treatment with Trypsin-EDTA (0.05%).
# (§5) To run the anti-viral assay, ACTOne cells were detached by treating the cell culture flask with trypsin (trypsinization) and resuspended in growth medium containing 2% of DMSO to a density of 2.5×10^5 cells/ml. One hundred μl of such cells was added to 10 μl of antigen binding protein pre-loaded in a 96-well plate. Ninety μl of PSV was then added to each well. The assay plates were incubated at 37° C. in a humidified incubator at 5% CO2 level. Plates were developed after 72 hours of incubation by adding 50 μl of BRIGHTGLO luciferase reagent (Promega, Madison WI) to each well, and transferring the plates to an ENVISION multilabel plate reader (PerkinElmer, Waltham MA) to measure the luminescence and determine the level of virus that had infected the cells. The higher the luminescence signal, the higher the level of infection.
# HIV-2 differs from HIV-1 in that it originates from the transmission of simian immunodeficiency virus (SIV) from sooty mangabeys (SIVsmm) to human (Gao et al, J Virol. 1994; 68 (11): 7433-7447) whilst HIV-1 stems from the transmission from chimpanzees and western gorillas (HIV-1 group M and O, respectively). HIV-2 can also cause AIDS but is far less pathogenic and wide-spread than HIV-1 (de Silva et al, Trends Microbiol. 2008; 16 (12): 588-595; Da Silva et al, AIDS. 2008; 22 (10): 1195-1202). Though also using CD4 for infection (Sattentau et al, AIDS. 1988; 2 (2): 101-105), HIV-2 shares only 40% identity in the gp160 amino acid sequence with HIV-1, and is therefore less sensitive or insensitive to HIV-1 envelope-directed bnAbs (Kong et al, JVI 2012; 86 (2): 947-960).
# [3] = tested on: panel of HIV-1 envelopes (pseudotyped HIV-1 virus); experiment: PSV assay (ACTOne cells), HIV-1 envelopes; type: cell-based
# Description: as §1, §2, §3, §4, §5
# [4] = tested on: HIV NL4-3 virus; experiment: In vitro resistance barrier (viral breakthrough in MT2 cells); type: cell-based, HIV-1; details: HIV NL4-3 in MT2 cells
# Description: To assess the resistance barrier of the bispecific molecules, we examined the relative rates at which HIV NL4-3 virus can escape inhibition by a panel of antibodies versus a DMSO control.
# MT2 cells (2.0×10^5/well in RPMI 1640+[…] penicillin and streptomycin+10 mM HEPES buffer pH 7.55+2 mM L-glutamine. +0.2% DMSO) were pre-infected at an MOI (multiplicity of infection) of 0.005 for 2.5 hours and then pelleted to remove unbound virus particles. One mL of infected cells was added to each well of a 24 well plate.
# Every 3-4 days images of the wells were captured and 1 ml of each well is removed and replaced by fresh preparations of each condition. This process was continued until there was viral breakthrough (observed cytopathic effect (CPE)>80%) or until there was a confirmed elimination of infected cells (via challenged elimination). When either condition was achieved, the sample was collected as pellet and supernatant (via centrifugation) and stored at −80° C. until genotypic analysis was performed to confirm the presence of resistance mutations. The days from infection to breakthrough were used to estimate the resistance barrier of a certain molecule. The longer it takes the virus to develop CPE, which indicates resistance, the higher the resistance barrier is.
# [5] = tested on: NL4-3 (NLRepRluc replicating reporter virus); experiment: Replicating virus assay using NLRepRluc virus (NL4-3) in MT-2 cells; type: cell-based, HIV-1; details: NL4-3, replicating virus assay
# Description: All clinical and laboratory isolates were originally obtained from the NIH AIDS Reagent Program (currently NIH HIV Reagent Program, https:hivreagentprogram.org/). The proviral clone of NL4-3 (obtained from NIH) was used to make the replicating reporter virus NLRepRluc, in which a section of the nef gene from the proviral clone of NL4-3 was replaced with the Renilla luciferase gene. Virus was produced through transfection of HEK293T cells using Lipofectamine Plus (Invitrogen, Carlsbad, CA), according to the manufacturer's instructions. […]
# The NLRepRluc was used to infect MT-2 cells at a multiplicity of 0.01 for 1 hour before adding the proteins to the 96-well plates. […] After 4 days of incubation, cells were processed and quantitated for virus growth by the amount of expressed luciferase. Luciferase was quantitated using the ENDUREN substrate from Promega (Madison, WI) according to the manufacturer's instructions. Luciferase activity was measured immediately on an ENVISION multilabel plate reader (PerkinElmer, Waltham MA). EC50 values were calculated by comparing the amount of luciferase produced in the presence of antigen binding protein compared to wells where no antigen binding protein (DMSO control) was added. […]
# [6] = envelope HIV-2-AID, PSV assay, ACTOne cells
# [7] = envelope HIV-2-ATM88, PSV assay
# [8] = envelope HIV-2-HCC-01, PSV assay
# [9] = envelope CAP45.2.00.G3, PSV assay
# [10] = envelope X1632_S2_B10, PSV assay
substance,measurement,setting,value
"D1m-E13C-I70C: soluble CD4 D1 variant of mD1.22 with E13C and I70C, SEQ ID NO:13, 6xHis tagged",Tm (° C.),[1],78.8 °C
"D1m-E87G: soluble CD4 D1 variant of mD1.22 with E87G, SEQ ID NO:8, 6xHis tagged [Molecule D1m-E87G]",Tm (° C.),[1],71.9 °C
"D1m-E91H: soluble CD4 D1 variant of mD1.22 with E91H, SEQ ID NO:7, 6xHis tagged [Molecule D1m-E91H]",Tm (° C.),[1],72.6 °C
"D1m-E91Q: soluble CD4 D1 variant of mD1.22 with E91Q, SEQ ID NO:6, 6xHis tagged [Molecule D1m-E91Q]",Tm (° C.),[1],72.4 °C
"D1m-H27C-G38C: soluble CD4 D1 variant of mD1.22 with H27C and G38C, SEQ ID NO:14, 6xHis tagged",Tm (° C.),[1],90.1 °C
"D1m-K8C-G99C: soluble CD4 D1 variant of mD1.22 with K8C and G99C, SEQ ID NO:11, 6xHis tagged [Molecule D1m-K8C-G99C]",Tm (° C.),[1],88.8 °C
"D1m-K8C-G99C_Fc: CD4 D1m-K8C-G99C domain fused to human Fc, SEQ ID NO:158; CD4 control",pIC50,[2]; [6],7.61
same,pIC50,[2]; [7],8.57
same,pIC50,"[2]; envelope HIV-2-HCC-01, ACTOne cells",< 6.52
same,pIC50,[2]; [8],< 6.52
same,pIC50,"[3]; envelope 93UG065, PSV assay",6.85
same,pIC50,"[3]; envelope 246F3, PSV assay",8.37
same,pIC50,"[3]; envelope 0260.v5.c36, PSV assay",6.92
same,pIC50,"[3]; envelope 398F1, PSV assay",7.04
same,pIC50,"[3]; envelope 928_28, PSV assay",9.11
same,pIC50,[3]; envelope 3326_V4_C3,< 6.30
same,pIC50,"[3]; envelope 3326_V4_C3, PSV assay",< 6.30
same,pIC50,[3]; envelope 3468_V1_C12,7.19
same,pIC50,"[3]; envelope 3468_V1_C12, PSV assay",7.19
same,pIC50,[3]; envelope 3637_V5_C3,< 6.30
same,pIC50,"[3]; envelope 3637_V5_C3, PSV assay",< 6.30
same,pIC50,"[3]; envelope 6471_V1_C16, PSV assay",8.29
same,pIC50,"[3]; envelope 25710, PSV assay",8.88
same,pIC50,[3]; envelope 42368,8.80
same,pIC50,"[3]; envelope 42368, PSV assay",8.80
same,pIC50,"[3]; envelope 620345_C1, PSV assay",7.00
same,pIC50,"[3]; envelope BJOX2000, PSV assay",8.63
same,pIC50,[3]; envelope CAP45.2.00.G3,7.69
same,pIC50,[3]; [9],7.69
same,pIC50,[3]; envelope CC1/85,8.70
same,pIC50,"[3]; envelope CC1/85, PSV assay",8.70
same,pIC50,"[3]; envelope CE0217, PSV assay",8.60
same,pIC50,"[3]; envelope CE1176, PSV assay",8.37
same,pIC50,"[3]; envelope CH119, PSV assay",8.49
same,pIC50,"[3]; envelope CNE8, PSV assay",6.46
same,pIC50,"[3]; envelope CNE55, PSV assay",7.38
same,pIC50,"[3]; envelope JR-CSF, PSV assay",8.26
same,pIC50,"[3]; envelope JRFL, PSV assay",8.95
same,pIC50,[3]; envelope Q461_E2,7.93
same,pIC50,"[3]; envelope Q461_E2, PSV assay",7.93
same,pIC50,[3]; envelope T278.50,8.84
same,pIC50,"[3]; envelope T278.50, PSV assay",8.84
same,pIC50,"[3]; envelope TH976_17, PSV assay",7.41
same,pIC50,"[3]; envelope TRO11, PSV assay",6.83
same,pIC50,"[3]; envelope X1632, PSV assay",8.74
same,pIC50,[3]; envelope X2088.C9,8.04
same,pIC50,"[3]; envelope X2088.C9, PSV assay",8.04
same,pIC50,"[3]; envelope X2278, PSV assay",7.35
same,pIC50,"[3]; envelope YU-2, PSV assay",9.70
same,pIC50,[3]; envelope ZM106.9,7.82
same,pIC50,"[3]; envelope ZM106.9, PSV assay",7.82
"D1m-K8I: soluble CD4 D1 variant of mD1.22 with K8I, SEQ ID NO:10, 6xHis tagged [Molecule D1m-K8I]",Tm (° C.),[1],75.9 °C
"D1m-K8V: soluble CD4 D1 variant of mD1.22 with K8V, SEQ ID NO:5, 6xHis tagged [Molecule D1m-K8V]",Tm (° C.),[1],77.1 °C
"D1m-K21C-G65C: soluble CD4 D1 variant of mD1.22 with K21C and G65C, SEQ ID NO:15, 6xHis tagged",Tm (° C.),[1],80.1 °C
"D1m-N52W: soluble CD4 D1 variant of mD1.22 with N52W, SEQ ID NO:9, 6xHis tagged [Molecule D1m-N52W]",Tm (° C.),[1],72 °C
"D1m-T11C-K72C: soluble CD4 D1 variant of mD1.22 with T11C and K72C, SEQ ID NO:12, 6xHis tagged",Tm (° C.),[1],79.9 °C
"D1mD2_His: soluble CD4 D1D2 variant mD1.22-D2 (SEQ ID NO:2) plus C-terminal 6xHis tag [Molecule D1mD2_His, reference compound]",pIC50,"[3]; envelope 42368, PSV assay",8.14
same,pIC50,"[3]; envelope BJOX2000, PSV assay",7.48
same,pIC50,[3]; [9],< 6.30
same,pIC50,"[3]; envelope CH119, PSV assay",6.92
same,pIC50,"[3]; envelope HXB2, PSV assay",10.15
same,pIC50,"[3]; envelope LAI, PSV assay",8.27
same,pIC50,"[3]; envelope NL4-3, PSV assay",9.13
same,pIC50,"[3]; envelope T278.50, PSV assay",7.80
same,pIC50,"[3]; envelope TRO11, PSV assay",7.76
same,pIC50,[3]; [10],7.83
"D1m_His: soluble human CD4 D1 variant mD1.22 (SEQ ID NO:4) plus C-terminal 6xHis tag [Molecule D1m_His, reference compound]",Average days before CPE,[4]; group 20x EC50,4 days
same,Average days before CPE,[4]; group 30x EC50,5 days
same,Average days before CPE,[4]; group 40x EC50,7 days
same,Tm (° C.),[1],68.2 °C
same,pEC50,[5],9.64
same,pIC50,[2]; [6],6.98
same,pIC50,[2]; [7],8.41
same,pIC50,[2]; [8],< 6.30
same,pIC50,"[3]; envelope 42368, PSV assay",8.36
same,pIC50,"[3]; envelope BJOX2000, PSV assay",7.15
same,pIC50,[3]; [9],6.88
same,pIC50,"[3]; envelope CC1/85, PSV assay",8.15
same,pIC50,"[3]; envelope CH119, PSV assay",7.04
same,pIC50,"[3]; envelope LAI, PSV assay",8.06
same,pIC50,"[3]; envelope T278.50, PSV assay",8.40
same,pIC50,"[3]; envelope TRO11, PSV assay",7.16
same,pIC50,[3]; [10],7.79
same,pIC50,"[3]; envelope ZM106.9, PSV assay",7.58
